In patent publication US20230212215A1, “GLUCOCORTICOID RECEPTOR MODULATORS” (TRUSTEES OF DARTMOUTH COLLEGE, priority 2020, published 2023):

Molecular target: T1, human GR (Homo sapiens, UniProt P04150)
T1 construct: purchased Indigo Biosciences
T1 sequence (P04150 1-777): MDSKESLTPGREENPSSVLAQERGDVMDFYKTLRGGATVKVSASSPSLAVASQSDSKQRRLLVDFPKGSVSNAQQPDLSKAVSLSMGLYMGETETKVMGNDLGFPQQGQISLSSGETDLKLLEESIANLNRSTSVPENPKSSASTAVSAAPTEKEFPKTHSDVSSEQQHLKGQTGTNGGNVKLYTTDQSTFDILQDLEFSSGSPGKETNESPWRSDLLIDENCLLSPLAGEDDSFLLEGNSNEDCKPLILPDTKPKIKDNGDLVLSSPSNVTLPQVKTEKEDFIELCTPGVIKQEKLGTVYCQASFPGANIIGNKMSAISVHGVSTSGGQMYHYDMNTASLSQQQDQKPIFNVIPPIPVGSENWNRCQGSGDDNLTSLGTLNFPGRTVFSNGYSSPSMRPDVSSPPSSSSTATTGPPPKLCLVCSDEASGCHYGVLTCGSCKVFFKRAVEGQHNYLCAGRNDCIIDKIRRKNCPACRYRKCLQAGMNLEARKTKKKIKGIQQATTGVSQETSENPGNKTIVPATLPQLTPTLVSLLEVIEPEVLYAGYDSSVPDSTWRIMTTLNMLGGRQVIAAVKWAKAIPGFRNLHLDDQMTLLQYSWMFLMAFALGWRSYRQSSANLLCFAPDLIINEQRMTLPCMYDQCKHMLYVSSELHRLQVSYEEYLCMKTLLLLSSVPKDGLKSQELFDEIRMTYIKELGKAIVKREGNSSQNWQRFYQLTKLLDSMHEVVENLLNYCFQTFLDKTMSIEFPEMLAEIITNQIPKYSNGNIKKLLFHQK
Assay: human GR antagonist assay (Indigo Biosciences)
Format: cell-based
Description: The activity of a compound can be determined using various known methods. For example, GR assays can be used. Such GR assays include binding assays using, for example, cells transfected with the human glucocorticoid receptor (NR3C1). Several cell based model systems that allow sensitive detection and monitoring of steroids or other compounds with GR bioactivity are known. Most cell based GR reporter models use transgenic gene constructs that include a glucocorticoid response element (GRE) that controls reporter gene (e.g., lucifersrase) expression. For example, a human GR Reporter Assay System is commercially available from Indigo Biosciecnes. […] The principle application of such an assay product is to quantify functional activities, either agonist or antagonist, that a compound may exert against the human glucocorticoid receptor.
The activity of certain compounds were tested in a human GR antagonist assay (Indigo Biosciences).

SMILES	IC50 (nM) (Table 1)	EC50 (Table A)	IC50 (text of Example 2)	HillSlope (Table 1)
Cc1ncccc1NC(=O)c1ccc2c(c1)CCC1=C3C[C@H](O)C[C@]3(C)CC[C@]12Cc1ccccc1 [Compound A, (9S,13S,16R)-9-benzyl-16-hydroxy-13-methyl-N-(2-methylpyridin-3-yl)-7,9,11,12,13,15,16,17-octahydro-6H-cyclopenta[α]phenanthrene-3-carboxamide]	No activity	not active	not active	–
CC#C[C@]1(O)CC[C@H]2[C@@H]3CCC4=CC(=O)CCC4=C3[C@@H](c3ccc(N(C)C)cc3)C[C@@]21C [Mifepristone, reference compound]	–	–	–	0.8706
